Results on one molecule are retold here after patent publication US20130295017A1, “METHODS FOR SCREENING ANTIBIOTIC COMPOUNDS” (priority 2010, published 2013).

This experiment concerns S. aureus strain ALC6094. The experiment is described as follows: Murine model of subcutaneous infection (abscess), IPTG induction of MazFsa. Conditions: for Log10 CFU/abscess: sacrifice day 4, n = 9. Type of experiment: in vivo, Balb/C female mice. From the text:
A murine model of subcutaneous infections (abscess) was used. Such models are well-established as methods to screen for in vivo activity to affect infection processes (Tamber et al. 2010. Infect. Immun. 78:3637-3646).
In the present experiments, a bacterial strain ALC6094, which is a derivative of S. aureus strain Newman was used. This strain contains a chromosomal copy of the T7 polymerase gene and the plasmid pG164::mazFsa, which is a shuttle plasmid with an IPTG-inducible T7 promoter driving MazFsa expression. Mice were challenged with 2×10^7 CFU of bacteria via subcutaneous (s.q.) injection and mixed with 1 mM IPTG immediately before injection. After injection, half of the IPTG-treated animals received two saline injections daily while the remaining half were injected with 1 mM IPTG (s.q.) daily for 2 days. All animals were sacrificed on day 4, including untreated control groups receiving no IPTG. […] Thus, drugs that disrupt the MazEF complex would be novel compounds for use in treating S. aureus bacterial infections.
Balb/C female mice (20-22 grams) were used to assess the utility of disrupting MazEFsa activity in vivo as a potential method for testing for drug efficacy. The mice were infected subcutaneously with 200 μl of 1.5×10^8 CFU/ml of bacteria. The bacterial strain used was ALC6094, which is a derivative of S. aureus strain Newman containing a chromosomal copy of the T7 polymerase gene and the plasmid pG164::mazFsa, which is a shuttle plasmid with an IPTG-inducible T7 promoter driving MazFsa expression. Control mice were infected with the bacteria but received no further injections. Two treatment groups were tested: 1) mice injected with ALC6094 that was mixed with IPTG immediately before injection (1 ml of a 5 mM solution of IPTG); and 2) mice injected with ALC6094 mixed with IPTG and then given daily IPTG injections for two subsequent days. Animal were sacrificed on day 4 after injection. Only mice receiving saline control developed visible abscesses by day 3, while those animals receiving IPTG had visible erythematous injection sites.

Structures are written as SMILES.

Regarding `CC(C)S[C@@H]1O[C@H](CO)[C@H](O)[C@H](O)[C@H]1O` [IPTG], the “Log10 CFU/abscess” value is, setting by setting: (ALC6094 mixed with IPTG immediately before s.q. injection) 6.57 ± 0.83 Log10 CFU/abscess; (ALC6094 mixed with IPTG plus daily IPTG injections for two subsequent days) 6.59 ± 0.95 Log10 CFU/abscess. Further, for the setting “mice receiving IPTG induction for MazFsa”, the “abscess size vs. no IPTG controls” value was “smaller abscess sizes”.
